Data on two compounds can be found in patent US20200239530A1, “COMPOUNDS AND METHODS OF MODULATING PROTEIN DEGRADATION” (Vividion Therapeutics, Inc., priority 2017, published 2020).

Assay [1] has as its target T1, ATP6V1A V-type proton ATPase catalytic subunit A (Homo sapiens, UniProt P38606).
T1 construct: 200 μL of lysate containing 5 mg/ml proteome was treated with 2 μL of 100× compound stock; endogenous in cells
Put plainly: Cysteine liganding, probe competition. It counts as binding. The conditions noted are these: for Liganded: ATP6V1A Res# 277, uniprot P38606. The procedure, abridged:
(§1)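 Probe competition in native proteome: 5 mg/ml lysate, compound 1 hr 25° C, then desthiobiotin iodoacetamide (10 mM stock) 1 hr 25° C; acetone ppt, urea/DTT reduction, iodoacetamide alkylation, trypsin, streptavidin pull-down.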

The target of assay [2] is T2, TAP2 Antigen peptide transporter 2 (Homo sapiens, UniProt Q03519).
T2 construct: Cells were resuspended in cold PBS on ice and sonicated with a probe sonicator to achieve lysis; endogenous in cells
T2 sequence (Q03519 1-686): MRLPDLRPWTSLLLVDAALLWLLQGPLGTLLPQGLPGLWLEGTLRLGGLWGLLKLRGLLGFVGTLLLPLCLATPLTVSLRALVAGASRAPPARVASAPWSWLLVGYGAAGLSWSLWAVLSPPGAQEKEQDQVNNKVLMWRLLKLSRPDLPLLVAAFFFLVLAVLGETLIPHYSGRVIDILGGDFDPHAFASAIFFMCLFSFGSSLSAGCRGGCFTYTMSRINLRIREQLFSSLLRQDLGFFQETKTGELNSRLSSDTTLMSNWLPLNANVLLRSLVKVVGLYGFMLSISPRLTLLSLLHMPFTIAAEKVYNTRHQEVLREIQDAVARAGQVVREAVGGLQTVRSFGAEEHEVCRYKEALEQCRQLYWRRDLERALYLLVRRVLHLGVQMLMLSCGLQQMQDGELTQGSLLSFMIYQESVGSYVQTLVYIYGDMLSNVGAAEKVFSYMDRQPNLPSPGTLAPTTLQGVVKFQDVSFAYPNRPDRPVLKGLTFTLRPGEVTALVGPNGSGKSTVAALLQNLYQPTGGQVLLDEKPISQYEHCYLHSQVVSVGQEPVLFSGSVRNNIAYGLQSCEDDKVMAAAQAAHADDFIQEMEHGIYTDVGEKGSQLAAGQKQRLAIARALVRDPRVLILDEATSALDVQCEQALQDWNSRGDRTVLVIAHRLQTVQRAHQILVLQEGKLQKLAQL
T2 sequence (Q03518 1-748 partner): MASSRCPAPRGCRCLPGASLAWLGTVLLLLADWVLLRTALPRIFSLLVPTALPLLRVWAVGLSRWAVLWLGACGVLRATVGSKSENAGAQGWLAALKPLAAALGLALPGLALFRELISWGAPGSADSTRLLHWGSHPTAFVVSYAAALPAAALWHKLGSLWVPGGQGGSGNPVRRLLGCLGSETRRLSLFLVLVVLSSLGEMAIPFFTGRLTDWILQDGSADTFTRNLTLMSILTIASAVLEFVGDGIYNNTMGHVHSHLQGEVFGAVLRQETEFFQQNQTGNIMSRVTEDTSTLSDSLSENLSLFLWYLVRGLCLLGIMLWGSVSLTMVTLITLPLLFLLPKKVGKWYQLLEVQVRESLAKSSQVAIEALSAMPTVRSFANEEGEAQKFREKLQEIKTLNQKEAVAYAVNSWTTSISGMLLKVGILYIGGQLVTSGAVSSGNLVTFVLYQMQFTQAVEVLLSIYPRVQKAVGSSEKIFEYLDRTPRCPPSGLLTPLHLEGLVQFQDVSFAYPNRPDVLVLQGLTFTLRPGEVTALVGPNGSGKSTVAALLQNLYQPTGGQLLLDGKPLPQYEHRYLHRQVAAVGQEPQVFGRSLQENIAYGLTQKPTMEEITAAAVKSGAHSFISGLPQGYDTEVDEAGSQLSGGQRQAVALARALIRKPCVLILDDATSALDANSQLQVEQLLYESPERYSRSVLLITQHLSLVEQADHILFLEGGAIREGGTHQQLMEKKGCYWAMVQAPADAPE
Put plainly: Cysteine liganding, probe competition. Format: binding. The settings on record: for Liganded: TAP2 Res# 641, uniprot Q03519. The method, boiled down: as §1

T1 sequence (P38606 whole entry): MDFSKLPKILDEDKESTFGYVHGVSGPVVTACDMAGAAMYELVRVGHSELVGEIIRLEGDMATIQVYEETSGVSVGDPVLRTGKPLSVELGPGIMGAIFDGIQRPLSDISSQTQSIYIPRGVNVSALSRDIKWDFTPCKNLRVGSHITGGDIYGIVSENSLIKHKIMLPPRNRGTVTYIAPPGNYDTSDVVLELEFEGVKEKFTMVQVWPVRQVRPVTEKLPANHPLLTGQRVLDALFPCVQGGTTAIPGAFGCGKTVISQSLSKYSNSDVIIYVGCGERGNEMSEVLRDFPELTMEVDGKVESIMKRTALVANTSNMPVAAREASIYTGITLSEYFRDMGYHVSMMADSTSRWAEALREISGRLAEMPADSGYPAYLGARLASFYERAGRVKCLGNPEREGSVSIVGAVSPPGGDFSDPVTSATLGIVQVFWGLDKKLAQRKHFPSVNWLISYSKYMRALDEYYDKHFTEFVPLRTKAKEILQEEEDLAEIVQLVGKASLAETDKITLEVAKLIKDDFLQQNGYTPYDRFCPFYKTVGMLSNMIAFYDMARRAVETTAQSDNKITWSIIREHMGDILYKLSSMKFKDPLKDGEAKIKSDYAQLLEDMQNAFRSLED

`COc1ccc2c(c1)CCCN2C(=O)CCl` [KB02]: the Liganded entry in assay [1] and in assay [2] was “YES” in each case.
In the case of `O=C(CCl)Nc1cc(C(F)(F)F)cc(C(F)(F)F)c1` [KBO3], the Liganded result in assay [1] is given as “YES”. Further, in assay [1] (uniprot P38606), the “100 Max” value was found to be 27.98, the 100 ave was determined as 18.165, the “500 Max” value is given as 76.55 and the 500 ave worked out at 69.985. Further, the Liganded entry in assay [2] is “YES”. Moreover, in assay [2] (uniprot Q03519), the 100 ave is recorded as 70.57, the “500 Max” value was determined as 94.0932 and the 500 ave came out at 94.0932. In assay [2] (uniprot Q03519, in % (unit assumed)), the “100 Max” value is 71.9622.
